# In EP4603105A1, “PHARMACEUTICAL COMPOSITION CONTAINING CYCLIC COMPOUND HAVING SELECTIVE KRAS INHIBITORY EFFECT AGAINST HRAS AND NRAS” (CHUGAI SEIYAKU KABUSHIKI KAISHA, priority 2022, dated 2024):
# Experiments:
# [1] = target: GDP-bound KRAS wild-type protein (Homo sapiens, UniProt P01116); assay: Binding to KRAS by surface plasmon resonance (SPR), dissociation constant KD
# Outline: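 Read-out is KD from 1:1 fitting of single-cycle kinetics sensorgrams, blank-cycle and reference-surface corrected. Proteins were GDP-loaded, biotinylated Avi-fusions freshly captured each cycle at roughly 100–300 RU. Runs were at 30°C in HBS pH 7.4 with MgCl2, GDP and 4% DMSO.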
# [2] = target: GDP-bound NRAS wild-type protein (Homo sapiens, UniProt P01111); assay: Binding to NRAS by surface plasmon resonance (SPR), KD and KD ratio to KRAS
# GDP-bound NRAS wild-type protein, sequence (P01111 whole entry): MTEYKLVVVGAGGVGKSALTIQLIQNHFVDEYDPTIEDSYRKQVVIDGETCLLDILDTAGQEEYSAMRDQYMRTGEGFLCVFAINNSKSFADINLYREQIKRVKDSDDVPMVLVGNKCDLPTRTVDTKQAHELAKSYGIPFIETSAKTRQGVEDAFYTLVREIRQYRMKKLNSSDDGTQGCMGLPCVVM
# Outline: (§1)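 SPR, 30°C: Avi-biotin RAS·GDP captured via Biotin CAPture (~100–300 RU); running buffer HBS pH 7.4, 1 mM DTT, 10 mM MgCl2, 0.01% Tween 20, 10 µM GDP, 4% DMSO. Single-cycle kinetics, 100 µL/min, 75 s injections; 1:1 model → KD.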
# HRAS wild-type protein = HRAS wild-type protein (Homo sapiens, UniProt P01112); assay: Binding to HRAS by surface plasmon resonance (SPR), KD and KD ratio to KRAS
# HRAS wild-type protein, sequence (P01112 whole entry): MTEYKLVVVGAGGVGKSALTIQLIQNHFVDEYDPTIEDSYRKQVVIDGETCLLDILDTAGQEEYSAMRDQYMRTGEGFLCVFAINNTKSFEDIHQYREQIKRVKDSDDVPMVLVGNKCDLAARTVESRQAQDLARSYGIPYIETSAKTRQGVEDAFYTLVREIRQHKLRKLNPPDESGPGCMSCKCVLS
# Outline: as §1
# [3] = tested on: human lung cancer strain NCI-H441; type: cell-based
# Outline: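 Proliferation was scored by […] measured after the reagent was added to cultures kept at 37°C in 5% carbon dioxide.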
# [4] = tested on: human gastric cancer strain SNU-1; type: cell-based
# Experimental: (§2) A test compound was dispensed into a U-bottom 384-well plate as 40 nL serially diluted dimethyl sulfoxide solutions using a liquid handler Echo (LABCYTE). As for human gastric cancer strain SNU-1 (ATCC), a cell suspension was prepared so as to have 250 cells/40 µL in an RPMI-1640 medium (Sigma) supplemented with 10% fetal bovine serum (Sigma), a 2.5 g/L D-(+)-glucose solution, 10 mmol/L HEPES, and 1 mmol/L sodium pyruvate. This cell suspension was dispensed in an amount of 40 µL per well into a plate containing the test compound, and cultured at 37°C in a 5% carbon dioxide gas incubator. Seven days later, 20 µL of CellTiter-Glo (registered trademark) (Promega) was added to each well and luminescence was measured.
# [5] = tested on: human pancreatic cancer strain KP4; type: cell-based
# Experimental: as §2, with “pancreatic” for “gastric”, “KP4 (Institute of Physical and Chemical Research),” for “SNU-1 (ATCC),”, “500” for “250”, “a DMEM/Ham's F-12” for “an RPMI-1640”, “(Nacalai Tesque)” for “(Sigma)”, “(Sigma).” for “(Sigma), a 2.5 g/L D-(+)-glucose solution, 10 mmol/L HEPES, and 1 mmol/L sodium pyruvate.”
# [6] = tested on: human colorectal cancer strain GP2d; type: cell-based
# Experimental: as §2, with “colorectal” for “gastric”, “GP2d (ECACC),” for “SNU-1 (ATCC),”, “500” for “250”, “a Dulbecco's modified Eagle” for “an RPMI-1640”, “medium” for “medium (Sigma)”, “(Sigma).” for “(Sigma), a 2.5 g/L D-(+)-glucose solution, 10 mmol/L HEPES, and 1 mmol/L sodium pyruvate.”
# [7] = tested on: human gastric cancer strain GSU; type: cell-based
# Experimental: as §2, with “GSU (Institute of Physical and Chemical Research),” for “SNU-1 (ATCC),”, “200” for “250”, “(Sigma).” for “(Sigma), a 2.5 g/L D-(+)-glucose solution, 10 mmol/L HEPES, and 1 mmol/L sodium pyruvate.”
# [8] = tested on: human ovarian cancer strain OV7; type: cell-based
# Experimental: A test compound was dispensed into a U-bottom 384-well plate as 40 nL serially diluted dimethyl sulfoxide solutions using a liquid handler Echo (LABCYTE). As for human ovarian cancer strain OV7 (ECACC), a cell suspension was prepared so as to have 250 cells/40 µL in a DMEM/Ham's F-12 medium (Nacalai Tesque) supplemented with 5% fetal bovine serum (Sigma), 0.5 µg/mL hydrocortisone, and 10 µg/mL insulin. This cell suspension was dispensed in an amount of 40 µL per well into a plate containing the test compound, and cultured at 37°C in a 5% carbon dioxide gas incubator. Seven days later, 20 µL of CellTiter-Glo (registered trademark) (Promega) was added to each well and luminescence was measured.
# [9] = tested on: human bladder cancer strain UM-UC-3; type: cell-based
# Experimental: as §2, with “human bladder” for “human gastric”, “strain UM-UC-3” for “strain SNU-1”, “an MEM” for “an RPMI-1640”, “medium (Nacalai Tesque)” for “medium (Sigma)”, “(Sigma), an MEM non-essential amino acids solution (100X),” for “(Sigma), a 2.5 g/L D-(+)-glucose solution, 10 mmol/L HEPES,”, “measured. […]” for “measured.”
# [10] = ratio of KD for GDP-bound NRAS wild-type protein to KD for KRAS
# [11] = ratio of KD for HRAS wild-type protein to KD for KRAS
# GDP-bound KRAS wild-type protein, sequence (P01116 1-188 isoform P01116-2): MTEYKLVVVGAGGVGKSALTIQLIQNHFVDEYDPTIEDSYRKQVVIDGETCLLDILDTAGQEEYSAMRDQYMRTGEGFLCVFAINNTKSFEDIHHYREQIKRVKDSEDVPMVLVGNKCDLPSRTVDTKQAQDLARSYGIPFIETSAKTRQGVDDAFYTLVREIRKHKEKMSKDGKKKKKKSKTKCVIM
SMILES,"Kd ([1]; Single Cycle Kinetics, 1:1 binding model) [nM]",NRAS /KRAS ([2]; ratio of KD value for GDP-bound NRAS wild-type protein to KD value for KRAS (SPR)),HRAS /KRAS (HRAS wild-type protein; ratio of KD value for HRAS wild-type protein to KD value for KRAS (SPR)),IC50 [3] [nM],IC50 [4] [nM],IC50 [5] [nM],IC50 [6] [nM],IC50 [7] [nM],IC50 [8] [nM],IC50 [9] [nM],Kd ([1]; 1:1 binding model) [nM],"NRAS /KRAS [2, 10]",HRAS /KRAS (HRAS wild-type protein; [11]),Kd ([1]; Single Cycle Kinetics) [nM]
"CCCC[C@H]1C(=O)N[C@@H]([C@@H](C)CC)C(=O)N(C)CC(=O)N(C)[C@H]2C/C=C\CCN(C2=O)[C@@H](Cc2ccc(C(F)(F)F)cc2)C(=O)N(C)CC(=O)N[C@@H](CCc2cc(F)c(C(F)(F)F)c(F)c2)C(=O)N2C[C@H](F)C[C@H]2C(=O)NC2(CC(C)(C)C2)C(=O)N(C)[C@@H](C2CCCC2)C(=O)N(C)[C@H](C(=O)N(C)C)CC(=O)N1C [PP1693, (2S,8S,12R,14S,20S,23S,27S,30S,36S,38Z)-27-butyl-20-cyclopentyl-8-[2-[3,5-difluoro-4-(trifluoromethyl)phenyl]ethyl]-12-fluoro-N,N,3',3',4,19,22,26,32,35-decamethyl-30-[(1S)-1-methylpropyl]-3,6,9,15,18,21,25,28,31,34,42-undecaoxo-2-[[4-(trifluoromethyl)phenyl]methyl]spiro[1,4,7,10,16,19,22,26,29,32,35-undecazatricyclo[34.5.1.0^10,14]dotetracont-38-ene-17,1'-cyclobutane]-23-carboxamide]",0.027,AA (a compound having 20 or more is denoted as AA),A (a compound having 10 or more and less than 20 is denoted as A),1.1,4.3,14.2,2.4,0.5,7.4,4.1,,,,
CCC(CC)[C@H]1C(=O)N(C)[C@H](C(=O)N(C)C)CC(=O)N(C)[C@@H](COC)C(=O)N[C@@H]([C@@H](C)CC)C(=O)N(C)CC(=O)N(C)[C@H]2C/C=C\CCN(C2=O)[C@@H](Cc2ccc(C)cc2)C(=O)N(C)CC(=O)N[C@@H](CCc2ccc(C(F)(F)F)c(Cl)c2)C(=O)N2CC3(CC3)C[C@H]2C(=O)NC2(CC(C)(C)C2)C(=O)N1C [PP2967],,,,17,35.6,61.3,27.2,5.2,57.1,21.5,0.41,AA (a compound having 20 or more is denoted as AA),A (a compound having 10 or more and less than 20 is denoted as A),
CCC[C@H]1C(=O)N[C@@H]([C@@H](C)CC)C(=O)N(C)CC(=O)N(C)[C@H]2C/C=C\CCN(C2=O)[C@@H](Cc2ccc(C)cc2)C(=O)N(C)CC(=O)N[C@@H](CCc2cc(F)c(C(F)(F)F)c(F)c2)C(=O)N2CC3(CC3)C[C@H]2C(=O)N(C)C2(CCC2)C(=O)N(C)[C@@H](C2CCCC2)C(=O)N(C)[C@H](C(=O)N(C)C)CC(=O)N1C [PP3327],,,,4.4,2.4,4,0.7,0.5,1.6,0.6,,A (a compound having 10 or more and less than 20 is denoted as A),A (a compound having 10 or more and less than 20 is denoted as A),0.019
"CCC[C@H]1C(=O)N[C@@H]([C@@H](C)CC)C(=O)N(C)CC(=O)N(C)[C@H]2C/C=C\CCN(C2=O)[C@@H](Cc2ccc(C)cc2)C(=O)N(C)CC(=O)N[C@@H](CCc2ccc(C(F)(F)F)c(OC)c2)C(=O)N2C[C@H](OCC)C[C@H]2C(=O)OC2(CCC2)C(=O)N(C)[C@@H](C2CCCC2)C(=O)N(C)[C@H](C(=O)N(C)C)CC(=O)N1C [PP3388, (2S,8S,12R,14S,20S,23S,27S,30S,36S,38Z)-20-cyclopentyl-12-ethoxy-8-[2-[3-methoxy-4-(trifluoromethyl)phenyl]ethyl]-N,N,4,19,22,26,32,35-octamethyl-30-[(1S)-1-methylpropyl]-3,6,9,15,18,21,25,28,31,34,42-undecaoxo-27-propyl-2-(p-tolylmethyl)spiro[16-oxa-1,4,7,10,19,22,26,29,32,35-decazatricyclo[34.5.1.0^10,14]dotetracont-38-ene-17,1'-cyclobutane]-23-carboxamide]",,,,1.2,7.4,10.5,4.6,1.2,6.7,4.9,,A (a compound having 10 or more and less than 20 is denoted as A),B (a compound having 3 or more and less than 10 is denoted as B),0.16
CCO[C@@H]1C[C@H]2C(=O)OC3(CCC3)C(=O)N(C)[C@@H](C3CCCC3)C(=O)N(C)[C@H](C(=O)N(C)C)CC(=O)N(C)[C@@H]([C@@H](C)OC)C(=O)N[C@@H]([C@@H](C)CC)C(=O)N3CCC[C@H]3C(=O)N(C)[C@H]3C/C=C\CCN(C3=O)[C@@H](Cc3ccc(C(F)(F)F)cc3)C(=O)N(C)CC(=O)N[C@@H](CCc3ccc(C(F)(F)F)c(OC)c3)C(=O)N2C1 [PP3374],,,,5.9,7.4,8.2,6.9,1.9,15.9,6.3,,A (a compound having 10 or more and less than 20 is denoted as A),A (a compound having 10 or more and less than 20 is denoted as A),0.41
"CCO[C@@H]1C[C@H]2C(=O)NC3(CC(C)(C)C3)C(=O)N(C)[C@@H](C3CCCC3)C(=O)N(C)[C@H](C(=O)N(C)C)CC(=O)N(C)[C@@H]([C@@H](C)OC)C(=O)N[C@@H]([C@@H](C)CC)C(=O)N(C)CC(=O)N(C)[C@H]3C/C=C\CCN(C3=O)[C@@H](Cc3ccc(C(F)(F)F)cc3)C(=O)N(C)CC(=O)N[C@@H](CCc3ccc(C(F)(F)F)c(Cl)c3)C(=O)N2C1 [PP3198, (2S,8S,12R,14S,20S,23S,27S,30S,36S,38Z)-8-[2-[3-chloro-4-(trifluoromethyl)phenyl]ethyl]-20-cyclopentyl-12-ethoxy-27-[(1R)-1-methoxyethyl]-N,N,3',3',4,19,22,26,32,35-decamethyl-30-[(1S)-1-methylpropyl]-3,6,9,15,18,21,25,28,31,34,42-undecaoxo-2-[[4-(trifluoromethyl)phenyl]methyl]spiro[1,4,7,10,16,19,22,26,29,32,35-undecazatricyclo[34.5.1.0^10,14]dotetracont-38-ene-17,1'-cyclobutane]-23-carboxamide]",,,,4.4,3.2,4.7,2.4,0.4,7.2,2.5,0.04,A (a compound having 10 or more and less than 20 is denoted as A),A (a compound having 10 or more and less than 20 is denoted as A),
